These results are taken from patent US8293705B2, “HCV protease inhibitors and uses thereof” (Avila Therapeutics, Inc., priority 2007, dated 2012).

A word on the EC50: it is the midpoint of the concentration-response curve. One may read the IC50 as the midpoint of a concentration-inhibition curve.

For assay [1], the system named is HCV RNA replicon in cell line ET (luc-ubi-neo/ET), human Huh7 hepatoma. Kind of assay: Replicon luciferase assay, Example 26. Format: cell-based. Conditions: Hepatitis C virus, Huh-7, assay of Example 26, 72 hr, read-out: Inhibition, Replicon, EC50 value. The essentials: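 Huh7-derived ET cells carrying a luciferase-reporter HCV replicon, 5×10^3 cells/well, exposed 72 h to six 3-fold compound concentrations in DMEM with 5% FBS. Replicon luciferase gives EC50/EC90; Cell Titer Blue cell number gives cytotoxic IC50, with SI50 as their ratio. Interferon alpha-2b served as positive control.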
On the technique in general: Replicon systems follow genome replication, usually without infectious particles.

Assay [2] deals with T1, HCV NS3/4A 1b protease A156T (Hepatitis C virus genotype 1b, UniProt Q9WMX2, A1182T).
T1 construct: 10× stocks of NS3/4A protease enzyme from Bioenza (Mountain View, Calif.); purchased Bioenza (Mountain View, Calif.)
The assay is described as follows: HCV protease FRET assay (IC50_APP), Example 16. Type of assay: biochemical.

Assay [3] deals with T2, HCV NS3/4A 1b protease C159S (Hepatitis C virus genotype 1b, UniProt Q9WMX2, C1185S).
T2 construct: 10× stocks of NS3/4A protease enzyme from Bioenza (Mountain View, Calif.); purchased Bioenza (Mountain View, Calif.)
The assay is described as follows: HCV protease FRET assay (IC50_APP), Example 16. Conditions: reaction started immediately after enzyme addition, read-out: Inhibition (apparent IC50, IC50_APP), HCV C159S. Format: biochemical.

The target in assay [4] is T3, HCV NS3/4A 1b protease R155K (Hepatitis C virus genotype 1b, UniProt Q9WMX2, R1181K).
T3 construct: 10× stocks of NS3/4A protease enzyme from Bioenza (Mountain View, Calif.); purchased Bioenza (Mountain View, Calif.)
The assay is described as follows: HCV protease FRET assay (IC50_APP), Example 16. Format: biochemical. Conditions: reaction started immediately after enzyme addition, read-out: Inhibition (apparent IC50, IC50_APP), HCV R155K.

In assay [5] the target is T4, HCV NS3/4A 1b protease wild type (Hepatitis C virus genotype 1b, UniProt Q9WMX2).
T4 construct: 10× stocks of NS3/4A protease enzyme from Bioenza (Mountain View, Calif.); purchased Bioenza (Mountain View, Calif.)
The assay is described as follows: HCV protease FRET assay (IC50_APP), Example 16. Type of assay: biochemical.

The target of assay [6] is T5, HCV NS3/4A 1b protease D168A (Hepatitis C virus genotype 1b, UniProt Q9WMX2, D1194A).
T5 construct: 10× stocks of NS3/4A protease enzyme from Bioenza (Mountain View, Calif.); purchased Bioenza (Mountain View, Calif.)
Kind of assay: HCV protease FRET assay (IC50_APP), Example 16. Format: biochemical.

For the compound `C=C[C@@H]1C[C@]1(NC(=O)[C@@H]1CC(OC(=O)N2Cc3cccc(F)c3C2)CN1C(=O)[C@H](CC(=O)C=C(C)C)NC(=O)OC(C)(C)C)C(=O)NS(=O)(=O)C1CC1` (stereo partly drawn) [Compound I-32], the EC50 in assay [1] is below 10 nM. Further, the IC50 in assay [2] is below 10 nM; in assay [3] it was below 10 nM; in assay [4], 10 to 100 nM; in assay [5] it was below 10 nM; in assay [6] it was 10 to 100 nM.
